Experimental data taken from article PMC11124870, “Effect of Antioxidants in Medicinal Products on Intestinal Drug Transporters” (Pharmaceutics, 2024).
Read-outs that look alike come from different tables or passages of the source.

How the values were obtained:
P-gp = target: T1, P-gp (Homo sapiens, UniProt P08183); assay: Vesicular transport assay, 3H-NMQ uptake in P-gp membrane vesicles; type: biochemical; settings: for % Uptake of 3H-NMQ P-gp: antioxidant 200 µM, uptake with DMSO set as 100%, mean ± SD, three replicates, membrane vesicles
T1 construct: purchased ThermoFisher Scientific GM0015; host or cells: Sf9 membrane vesicles
Method: (§1) The vesicular transport assay was performed using Spodoptera frugiperda 9 (Sf9) membrane vesicles overexpressing human P-gp or BCRP, as reported previously with minor modifications. In brief, Isoplate 96-well flat-bottom white plates were preincubated with HBSS containing 0.5 mg/mL BSA on an orbital shaker in a 37 °C incubator at 90 rpm for 60 min followed by washing with HBSS. The assay mixture (75 µL/well) contained a probe substrate and either vehicle control, a known inhibitor of P-gp or BCRP, or an antioxidant, in vesicle uptake buffer (50 mM MOPS-Tris, pH 7.0 + 70 mM KCl + 7.5 mM MgCl2) prewarmed to 37 °C. After addition of the assay mixture, 5 μL/well (5 μg/μL stock concentration of the vesicles) of vesicles overexpressing human P-gp or BCRP was added. Uptake assays were initiated by adding 20 μL of either 25 mM adenosine triphosphate (ATP) or 25 mM adenosine monophosphate (AMP) to a final concentration of 5 mM. Plates were incubated at 37 °C for 20 min with orbital shaking (90 rpm). After 20 min, the uptake was quenched by adding 150 μL of ice-cold wash buffer (40 mM MOPS-Tris, pH 7.0 + 70 mM KCl) to each well, and the mixture was transferred to a 96-well filtration plate. Vacuum was applied, and the vesicles were washed three times with wash buffer. Vesicles were then lysed with 100 µL of MicroScint-20.

[1] = Table S1; source not stated; cited from earlier work
OATP2B1 = target: T2, OATP2B1 (Homo sapiens, UniProt O94956); assay: Uptake transporter assay, 3H-estrone sulfate uptake in HEK-293-OATP2B1 cells
T2 sequence (O94956 1-709): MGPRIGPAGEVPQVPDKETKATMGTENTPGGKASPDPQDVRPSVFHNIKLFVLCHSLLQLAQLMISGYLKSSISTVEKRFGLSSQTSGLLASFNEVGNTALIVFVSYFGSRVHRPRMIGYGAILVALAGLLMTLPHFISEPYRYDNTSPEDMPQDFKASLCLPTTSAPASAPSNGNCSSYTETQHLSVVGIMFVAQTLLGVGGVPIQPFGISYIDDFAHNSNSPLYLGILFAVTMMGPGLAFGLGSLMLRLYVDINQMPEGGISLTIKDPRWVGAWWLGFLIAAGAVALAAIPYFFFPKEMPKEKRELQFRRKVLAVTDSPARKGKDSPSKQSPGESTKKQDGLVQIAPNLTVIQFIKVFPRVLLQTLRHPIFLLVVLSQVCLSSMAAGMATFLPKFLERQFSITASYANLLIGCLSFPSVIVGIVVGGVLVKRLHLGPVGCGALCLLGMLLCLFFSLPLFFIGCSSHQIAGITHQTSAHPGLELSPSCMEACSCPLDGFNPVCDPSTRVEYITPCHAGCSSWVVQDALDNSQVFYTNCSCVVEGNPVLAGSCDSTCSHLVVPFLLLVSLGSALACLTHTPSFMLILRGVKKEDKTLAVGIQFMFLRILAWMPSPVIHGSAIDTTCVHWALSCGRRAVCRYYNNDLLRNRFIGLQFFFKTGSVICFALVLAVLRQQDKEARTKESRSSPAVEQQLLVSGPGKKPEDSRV
Method: The uptake transporter assay was performed as reported previously with minor modifications [15]. A day before the uptake assay, Isoplate 96-well plates were coated with poly-D-lysine in PBS with calcium and magnesium and washed with PBS. […] An assay mixture of ^3H-estrone sulfate, a known inhibitor of OATP2B1, or an antioxidant was prepared and incubated in a 37 °C incubator for 10 min. The cells were washed with ice-cold HBSS three times and incubated with MicroScint fluid on a shaker for 1 h for cell lysis. Radioactivity was measured by liquid scintillation counting with a MicroBeta^2® microplate counter. […] On the day of experiment, cells were washed twice with 0.4 mL of HBSS per well and then pre-incubated for 10–20 min in 0.4 mL of HBSS. […] Uptake of ^3H-valsartan was stopped after 15 min by washing three times with ice-cold HBSS. Cells were lysed in 750 µL of lysis buffer (0.1 N NaOH and 0.1% SDS in double-distilled water) per well while shaking for 60 min. A total of 690 µL of the lysate from each well was then added to 2.5 mL of EcoLite scintillation fluid. The radioactivity was determined on a LS6500 Scintillation Counter (Beckman Coulter). Protein concentration was measured with a Pierce™ BCA protein assay kit. The radioactivity in each well was corrected for protein concentration. All values were determined in triplicate, and the final values are expressed as % uptake relative to negative control (1% DMSO).
Antioxidants were screened at a concentration of 200 μM.

BCRP = target: T3, BCRP (Homo sapiens, UniProt Q9UNQ0); assay: Vesicular transport assay, 3H-CCK8 uptake in BCRP membrane vesicles; type: biochemical; parameters: purchased ThermoFisher Scientific GM0008; host or cells: Sf9 membrane vesicles; settings: for % Uptake of 3H-CCK8 BCRP: antioxidant 200 µM, uptake with DMSO set as 100%, mean ± SD, three replicates, membrane vesicles
T3 sequence (Q9UNQ0 1-655): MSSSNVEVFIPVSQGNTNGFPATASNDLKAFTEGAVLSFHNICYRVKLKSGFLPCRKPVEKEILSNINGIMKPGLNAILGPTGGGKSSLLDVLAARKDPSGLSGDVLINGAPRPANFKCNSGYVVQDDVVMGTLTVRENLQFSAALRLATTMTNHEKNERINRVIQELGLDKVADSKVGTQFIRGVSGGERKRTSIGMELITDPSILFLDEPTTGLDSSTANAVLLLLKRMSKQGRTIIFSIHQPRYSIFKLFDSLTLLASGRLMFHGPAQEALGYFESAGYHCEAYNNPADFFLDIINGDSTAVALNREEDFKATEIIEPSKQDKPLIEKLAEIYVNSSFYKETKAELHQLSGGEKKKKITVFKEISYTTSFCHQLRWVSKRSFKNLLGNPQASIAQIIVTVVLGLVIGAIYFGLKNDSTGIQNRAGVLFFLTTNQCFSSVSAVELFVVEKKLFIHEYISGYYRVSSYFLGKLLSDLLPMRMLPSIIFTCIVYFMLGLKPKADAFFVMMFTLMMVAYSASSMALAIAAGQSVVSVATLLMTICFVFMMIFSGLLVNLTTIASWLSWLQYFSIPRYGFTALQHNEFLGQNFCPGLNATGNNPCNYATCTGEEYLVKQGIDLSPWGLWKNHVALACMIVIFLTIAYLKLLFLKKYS
Method: as §1

OATP2B1, P-gp, and BCRP = settings: cited from earlier work
[2] = antioxidant 200 µM, uptake with DMSO set as 100%, mean ± SD, three replicates, HEK-293-OATP2B1 cells

T1 sequence (P08183 whole entry): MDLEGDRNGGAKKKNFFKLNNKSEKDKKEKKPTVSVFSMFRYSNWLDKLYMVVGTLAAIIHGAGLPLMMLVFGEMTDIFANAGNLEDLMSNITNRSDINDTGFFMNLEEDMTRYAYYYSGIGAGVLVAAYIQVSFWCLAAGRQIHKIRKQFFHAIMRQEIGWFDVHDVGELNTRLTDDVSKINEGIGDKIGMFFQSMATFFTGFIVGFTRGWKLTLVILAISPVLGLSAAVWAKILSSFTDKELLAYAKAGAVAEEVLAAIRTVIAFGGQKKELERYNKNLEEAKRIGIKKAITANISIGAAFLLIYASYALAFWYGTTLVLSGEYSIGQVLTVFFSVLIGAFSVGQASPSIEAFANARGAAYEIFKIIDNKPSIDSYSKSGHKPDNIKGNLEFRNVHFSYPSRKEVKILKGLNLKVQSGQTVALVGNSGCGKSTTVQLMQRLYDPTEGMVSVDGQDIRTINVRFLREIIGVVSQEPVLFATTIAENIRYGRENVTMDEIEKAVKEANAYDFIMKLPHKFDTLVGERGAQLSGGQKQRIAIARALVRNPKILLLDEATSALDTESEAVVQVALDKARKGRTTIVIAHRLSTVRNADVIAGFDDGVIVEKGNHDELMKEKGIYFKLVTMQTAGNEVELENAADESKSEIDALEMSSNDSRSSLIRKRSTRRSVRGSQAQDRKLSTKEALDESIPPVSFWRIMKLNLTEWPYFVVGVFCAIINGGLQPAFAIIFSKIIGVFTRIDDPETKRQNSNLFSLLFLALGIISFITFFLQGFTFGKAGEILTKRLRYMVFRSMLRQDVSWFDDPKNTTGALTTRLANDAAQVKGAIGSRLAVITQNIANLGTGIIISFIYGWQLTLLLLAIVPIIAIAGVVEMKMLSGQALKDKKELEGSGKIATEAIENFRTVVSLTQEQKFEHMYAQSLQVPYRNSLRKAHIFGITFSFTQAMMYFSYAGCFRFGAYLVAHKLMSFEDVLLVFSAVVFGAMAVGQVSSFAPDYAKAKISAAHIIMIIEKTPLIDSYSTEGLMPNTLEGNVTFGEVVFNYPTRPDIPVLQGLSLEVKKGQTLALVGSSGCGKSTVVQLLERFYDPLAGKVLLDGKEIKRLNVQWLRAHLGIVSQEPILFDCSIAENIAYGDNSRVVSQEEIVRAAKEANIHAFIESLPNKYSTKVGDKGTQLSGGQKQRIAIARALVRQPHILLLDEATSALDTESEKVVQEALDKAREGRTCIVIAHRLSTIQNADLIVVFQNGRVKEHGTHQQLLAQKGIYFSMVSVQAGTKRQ

Row | Compound | % Uptake of 3H-NMQ P-gp (P-gp) | LogP [1] | % Uptake of 3H-ES OATP2B1 (OATP2B1; [2]) | % Uptake of 3H-CCK8 BCRP (BCRP) | Uptake of 3H-CCK8 in BCRP membrane vesicles (assay validation) (BCRP; BSP 200 µM with 5 mM ATP, 37 °C, 20 min) | Uptake of 3H-ES in HEK-293 cells expressing OATP2B1 (assay validation) (OATP2B1; erlotinib 20 µM, 37 °C, 10 min) | inhibition at 20 min, 200 µM (P-gp; human, Sf9 membrane vesicles overexpressing human P-gp, pH 7, probe 3H-NMQ, 200 µM, 3H-NMQ) | Inhibition of intestinal transporters, previous assessment (OATP2B1, P-gp, and BCRP) | % Uptake of 3H-ES OATP2B1 (OATP2B1)
1 | O=C(O)c1ccc(O)c(O)c1 [3,4-dihydroxybenzoid acid, 3,4-dihydroxybenzoic acid] | 118.9 ± 20% | 0.86 | 85.4 ± 4.4% | 78.5 ± 6.9% | – | – | – | – | –
2 | O=C(O)CC(O)(CC(=O)O)C(=O)O [Anhydrous citric acid] | 92 ± 2.1% | – | – | 93.1 ± 6.7% | – | – | – | – | –
3 | O=C1O[C@H]([C@@H](O)CO)C(O)=C1O [Ascorbic acid] | 113.6 ± 43.3% | -1.85 | – | 92.7 ± 5.9% | – | – | – | – | –
4 | O=C1OC(c2ccc(O)c(S(=O)(=O)O)c2)(c2ccc(O)c(S(=O)(=O)O)c2)c2c(Br)c(Br)c(Br)c(Br)c21 [Bromosulfophthalein, reference compound] | 0.0 ± 22% | – | 10.9 ± 8.1% | 0.3 ± 1.2% | significantly reduced the uptake | – | – | – | –
5 | Cc1cc(C(C)(C)C)c(O)c(C(C)(C)C)c1 [Butylated hydroxytoluene (BH), Butylated hydroxytoluene] | 98.1 ± 20.3% | – | 137.1 ± 34.8% | 102.8 ± 9.2% | – | – | – | – | –
6 | O=C(O)/C=C/c1ccc(O)c(O)c1 [Caffeic acid] | 133.8 ± 12% | – | 119.8 ± 19.8% | 75.8 ± 3.7% | – | – | – | – | –
7 | NCCC(=O)N[C@@H](Cc1cnc[nH]1)C(=O)O [Carnosine] | 82.6 ± 44% | -4 | 119.3 ± 27.6% | 99.7 ± 11.6% | – | – | – | – | –
8 | COC1=C(OC)C(=O)C(C/C=C(\C)CC/C=C(\C)CC/C=C(\C)CC/C=C(\C)CC/C=C(\C)CC/C=C(\C)CC/C=C(\C)CC/C=C(\C)CC/C=C(\C)CCC=C(C)C)=C(C)C1=O [Co-enzyme Q-10] | 90.3 ± 16.3% | 10 | 116.1 ± 16.0% | 82.7 ± 16.2% | – | – | – | – | –
9 | COc1cc(/C=C/C(=O)CC(=O)/C=C/c2ccc(O)c(OC)c2)ccc1O [Curcumin, reference compound] | 0.0 ± 2.8% | – | – | 0.0 ± 1.8% | – | – | – | – | –
10 | Cl.N[C@@H](CS)C(=O)O [Cysteine hydrochloride] | – | – | – | 90.0 ± 12.5% | – | – | – | – | –
11 | O=C([O-])CN(CCN(CC(=O)[O-])CC(=O)O)CC(=O)O.[Na+].[Na+] [EDTA (edetate disodium), edetate disodium] | 69.3 ± 20.5% | – | – | 110.4 ± 24.6% | – | – | – | – | –
12 | C[N+](C)(C)[C@@H](Cc1c[nH]c(=S)[nH]1)C(=O)[O-] [Ergothioneine] | 58.2 ± 23.6% | 0.3 | 118.2 ± 30.6% | 112.5 ± 11.2% | – | – | – | – | –
13 | C#Cc1cccc(Nc2ncnc3cc(OCCOC)c(OCCOC)cc23)c1 [Erlotinib, reference compound] | 63 ± 5% | – | – | 58.5 ± 3.9% | – | significantly inhibited | – | – | –
14 | O=C1O[C@H]([C@H](O)CO)C(O)=C1O [Erythorbic acid] | 81.8 ± 31.4% | -1.88 | – | 88.2 ± 7.5% | – | – | – | – | –
15 | COc1cc(/C=C/C(=O)O)ccc1O [Ferulic acid] | 100.4 ± 16.6% | – | 136.4 ± 20.7% | 91.0 ± 4.7% | – | – | – | – | –
16 | N[C@@H](CCC(=O)N[C@@H](CS)C(=O)NCC(=O)O)C(=O)O [Glutathione] | 79.8 ± 15.8% | – | 107.9 ± 7.8% | 95.9 ± 2.2% | – | – | – | – | –
17 | NCC(=O)O [Glycine] | – | – | 125.6 ± 23.0% | – | – | – | – | – | –
18 | N[C@@H](Cc1c[nH]cn1)C(=O)O [Histidine] | 87.6 ± 10.6% | -3.32 | 108.9 ± 4.0% | 92.4 ± 1.6% | – | – | – | – | –
19 | NCCCC[C@H](N)C(=O)O [Lysine] | 32.5 ± 44.3% | -3.05 | 120.3 ± 21.4% | 109.0 ± 20.8% | – | – | ≥ 50% | – | –
20 | CSCC[C@H](N)C(=O)O [Methionine] | 86.7 ± 24.5% | -1.87 | 113.2 ± 15.2% | 94.8 ± 9.4% | – | – | – | – | –
21 | O=P(O)(O)O [Phosphoric acid] | – | – | – | 83.0 ± 18.0% | – | – | – | – | –
22 | C/C=C/C=C/C(=O)[O-].[K+] [Potassium sorbate] | 103.5 ± 28.7% | – | 98.8 ± 19.8% | 104.8 ± 14.5% | – | – | – | – | –
23 | CCCOC(=O)c1cc(O)c(O)c(O)c1 [Propyl gallate] | 149.1 ± 67.6% | – | 79.3 ± 17.2% | 86.5 ± 2.6% | – | – | – | – | –
24 | Oc1ccc2c(c1)OCO2 [Sesamol] | 121.3 ± 35.1% | 1.57 | 103.1 ± 7.2% | 90.3 ± 3.7% | – | – | – | – | –
25 | O=S([O-])O.[Na+] [Sodium bisulfite] | 96.1 ± 30.4% | -1.2 | 90.1 ± 24.5% | 110.4 ± 9.3% | – | – | – | – | –
26 | O=S(O)S(=O)(=O)O [Sodium metabisulfite] | 78.8 ± 17.5% | -3.7 | 118.9 ± 31.7% | 94.5 ± 8.2% | – | – | – | – | –
27 | O=S([O-])[O-].[Na+].[Na+] [Sodium sulfite] | 77.7 ± 33.7% | -4 | 92.9 ± 4.5% | 99.7 ± 5.5% | – | – | – | – | –
28 | O.O.O.O.O.O=S([O-])([O-])=S.[Na+].[Na+] [Sodium thiosulfate, pentahydrate] | 77.4 ± 20% | 0.048 | 104.4 ± 2.4% | 114.2 ± 22.8% | – | – | – | found not to inhibit these transporters | –
29 | O=C(O)C(O)C(O)C(=O)O (stereo not drawn) [Tartaric acid] | – | -0.76 | – | – | – | – | – | – | 101.1 ± 5.8%
30 | Vitamin E | 67.9 ± 24% | – | 83.5 ± 20.9% | 81.0 ± 12.6% | – | – | – | found not to inhibit these transporters | –
